The subject of experiment [1] is human liver carcinoma (HEPG2) cells. Put plainly: SRB cytotoxic assay, HEPG2. Format: cell-based. The conditions noted are these: single dose 100 µg/mL, 48 h, read-out: %Inhibition at100 µg/mL HEPG2. Here is the method:
All the prepared compounds were screened at a concentration of 100 µg/mL against six different human cell lines: human laryngeal carcinoma (HEP2), human colorectal carcinoma (HCT116), human breast carcinoma (MCF7), human Lung carcinoma (A549), human liver carcinoma (HEPG2), and normal African Green monkey kidney cell line (VERO). Doxorubicin was used as a positive control for comparison purposes.
The human laryngeal carcinoma (HEP2), colorectal carcinoma (HCT116), breast carcinoma (MCF7), Lung carcinoma (A549), liver carcinoma (HEPG2), and normal African Green monkey kidney cell line (VERO) were purchased from American Tissue Culture Collection (Rockville, MD, USA). The cells were treated for 48 h with a single dose (100 µg/mL) of all the tested chalcones. […] In brief, the cells were seeded in a 96-well microtiter plate at a concentration of 5×10^3 cells/well in 100 µL fresh RPMI-1640 medium and left to attach to the plates for 24 h. Then, cells were incubated with 100 μL of different concentrations (50, 25, 12.5, 6.25, and 0.0 µg/mL) of 5c in triplicate at 37 °C for 48 h. After that, the cells were fixed with 10 µL cold 100% Trichloroacetic acid (TCA) for 1h at 4 °C. The wells were then washed 1 time with distilled water using (automatic Tecan washer, Germany) and stained for 30 min at room temperature with 50 µL 0.4% SRB dissolved in 1% acetic acid. The plates were air-dried and the dye was solubilized with 100 µl/well of 1M tris base (pH 10.5) for 5 min. The optical density (O.D.) of each well was measured spectrophotometrically at 570 nm with an ELISA microplate reader (Sunrise Tecan reader, Germany) with automatic shaking for 30 seconds before reading. The mean background absorbance was subtracted automatically and mean values for each drug concentration were calculated. The percentage of cell survival was calculated as follows: Survival fraction= O.D. (treated cells)/ O.D. (control cells) (Bhat et al. [2023]).
In general terms: In SRB staining, fixed cells bind dye roughly in proportion to their protein.

Experiment [2] relates to Bcl2. As to the kind of experiment: ELISA, Bcl2 concentration. In kind it is cell-based, human. Here is the method: The concentrations of matrix metalloproteinase-2 (MMP2), matrix metalloproteinase-9 (MMP9), Bcl2, BAX, P53, Malondialdehyde (MDA), Glutathione (GSH), caspase 8, caspase 9 and IL-6 were measured quantitatively in 5c treated MCF7 and HEP2 cells using ELISA (Enzyme-Linked Immunosorbent Assay) (Table 4). Gelatinases are a collective word for MMP-2 and MMP-9, where MMP-2 is gelatinase-A and MMP-9 is gelatinase-B. Solid tumor invasion, metastasis, and angiogenesis have long been linked to gelatinases (Das et al. [2021]). […] Bcl2 is a crucial protein that targets apoptosis inhibition. It is regarded as a predictive biomarker or therapeutic target in the diagnosis of cancer due to its broad expression in a variety of cancers (Porter et al. [2009]). […] The pro-apoptotic protein BAX permeabilizes the mitochondrial outer membrane by changing from a cytosolic monomer to a hazardous oligomer triggering the apoptosis process (Fulda and Debatin [2006]). […] P53 transcription factor performs an essential tumor suppressor role by coordinating a wide range of physiological responses, including DNA repair, cell cycle arrest, cellular senescence, cell death, cell differentiation, and metabolism (Liebl and Hofmann [2021]). It was activated in MCF7 and HEP2-treated cells with values (4.28 and 3.109 ng/mL), respectively, compared to their controls (3.44 and 2.06 ng/mL). […]

“And” between values parts separate entries of the source, which are not always exact repeats. Identical values can stand only once.

For the compound `COc1ccc(NC(=O)COc2ccc(C=CC(=O)c3cccs3)cc2)cc1` [Compound 5c, N-(4-Methoxyphenyl)-2-(4-(3-oxo-3-(thiophen-2-yl)prop-1-en-1-yl)phenoxy)acetamide], in experiment [1], the inhibition at 100 µg/mL came out at 67 ± 1.6%. Besides, the Bcl2 concentration is 1809.34 pg/mL and 1809.34 ± 27.45 pg/mL in experiment [2] (5c treated HEP2 cells, untreated 2299.4±170.35); 2089.96 pg/mL and 2089.96 ± 17.97 pg/mL in experiment [2] (5c treated MCF7 cells, untreated 2479.8±17.08).

For the origin of these results see article PMC11582173, “Synthesis, cytotoxicity, anti-inflammatory, anti-metastatic and anti-oxidant activities of novel chalcones incorporating 2-phenoxy-N-arylacetamide and thiophene moieties: induction of apoptosis in MCF7 and HEP2 cells” (Naunyn-Schmiedeberg's Archives of Pharmacology, 2024).
